Measurements as given in a melting point compilation (Tetko et al.; mined from patent text by program, amines drawn as free bases though some values may be those of a salt).

| Structure (SMILES) | melting point |
| --- | --- |
| Nc1nc(Cl)nc2c1ncn2COCCO | 188 to 190 °C |
| CS(=O)(=O)c1c[nH]nc1C(CCCC(=O)C1CCCCC1)CO[N+](=O)[O-] (centres undefined) | 111 to 113 °C |
| COc1cc2ncc(C(=O)NCc3ccc(Cl)cc3)c(O)c2cc1OC | 184 °C |
| CCOC(=O)c1cn(Cc2ccccc2)nc1OCc1ccccc1 | 71 to 72 °C |
| N#Cc1cc(N)ccc1N1CCN(C2CCOCC2)CC1 | 162 °C |
| CC(=O)OC1(C(=O)CO)CCC2C3CC(C)C4=CC(=O)C=CC4(C)C3C(O)CC21C (centres undefined) | 198 to 201 °C |
| CNS(=O)(=O)c1cc2ccccc2cc1CC(=O)O | 185 to 186 °C |
| CC(=O)Nc1ccc(N2CCN(c3ccc(OCC(O)(Cn4cncn4)c4ccc(Cl)cc4Cl)cc3)CC2)cc1 (centres undefined) | 169 to 171 °C |
| C=CC(=O)OCCCCCCCCOc1ccc(-c2ccc(OCCCCCCCCOC(=O)C=C)c(F)c2)cc1F | 56.1 to 57.9 °C |
| CCSC(=O)Cc1cc(Oc2ccc(C(F)(F)F)cc2Cl)ccc1[N+](=O)[O-] | 82.5 to 84.2 °C |
| CONC(=O)Nc1ccc(-c2sc3c(c2CCl)c(=O)n(-c2ccccc2)c(=O)n3Cc2c(F)cccc2F)cc1 | 217 to 219 °C |
| COc1ccc(Cn2c(=O)oc(=O)c3cc(Cl)cnc32)cc1 | 173 °C |
| CCOC(=O)Cn1c(-c2cc(Cl)ccn2)nc2cccnc21 | 99 to 101 °C |
| CC1(c2cccc(OCc3ccccc3)c2)C(=O)Nc2cc(Cl)cc(Cl)c2C1=O (centres undefined) | 201 to 203 °C |
| CCCN(CCC)C(=O)C(CCC(N)=O)NC(=O)C=Cc1ccco1 (centres undefined) | 152 to 153 °C |
| CCOCc1cc(COc2cc(CCC(=O)O)n(-c3ccccc3)n2)cc(Oc2ncc(C(F)(F)F)cc2Cl)c1 | 124 to 128 °C |
| C#CCNC(=O)/C=C\SC(=O)c1ccccc1 | 131 to 134 °C |
| Cc1cccc(C(=O)Nc2nc(=O)c3ccccc3n2C)c1 | 266 to 269 °C |
| CC(=O)c1ccccc1NC(=O)C(Cl)(Cl)Cl | 113 °C |
| C=C[Si](C)(c1ccccc1)c1cccc(Cl)c1C(=O)NCC (centres undefined) | 85 to 87 °C |
| CN(CCc1ccc(NS(C)(=O)=O)cc1)Cc1ccc2cc(NS(C)(=O)=O)ccc2n1 | 165 to 166 °C |
| CS(=O)(=O)c1ccc(-n2nc(C(F)(F)F)cc2-c2ccc(-c3ccco3)cc2)cc1 | 196 °C |
| CCCCCCCCCCCCCc1c(C(F)(F)F)noc1NS(=O)(=O)c1ccccc1 | 89 °C |
| Nc1ncc2ncn(CCO)c2n1 | 173 to 175 °C |

| Structure (SMILES) | melting point |
| --- | --- |
| CN1CCN(C2=Nc3cc(Br)ccc3-n3ccc4cccc2c43)CC1 | 164 to 166 °C |
| CC(=O)Nc1ccc(C(C)=O)c2c1OCCO2 | 142 to 144 °C |
| O=C1C(O)OCN1c1cccc(C(F)(F)F)c1 (centres undefined) | 75 to 76 °C |
| COc1ccc(-c2cccc3c2/C(=C/c2ccc[nH]2)C(=O)N3)cc1 | 222 to 223 °C |
| O=[N+]([O-])c1cc2oc(-c3ccccc3)nc2cc1N1CCOCC1 | 134 to 135 °C |
| Cc1nc(N)c2nc(C)n(NC(C)C)c2c1C | 203 to 205 °C |
| CC1(C)COC(c2c(F)cccc2C2(C)CCCC2)=N1 | 116 to 117 °C |
| CCCCCCCCCCC1CN(O)C(=O)N1C (centres undefined) | 47 to 48 °C |
| CCc1cn(C2CC(O)C(CNC(=O)C(C)S(=O)(=O)c3ccc(Cl)cc3Cl)O2)c(=O)[nH]c1=O (mixture of isomers) | 183 to 184 °C |
| O=C1c2ccccc2C(=O)N1CCOc1ccncc1 | 157 to 158 °C |
| Oc1c(Br)cc(F)cc1Cc1cc(Cl)cc(Cc2cc(F)cc(Br)c2O)c1O | 192 to 194 °C |
| CC(C)(C)OC(=O)NCc1cccc(C2CCN(C(=O)c3ccc(C#Cc4ccccc4F)o3)CC2)c1 | 111 to 113 °C |
| CC(C)(C)OC(=O)c1c(Cl)cc(N2C(=O)N3CCCC3(Cc3ccc(Br)cc3)C2=O)cc1Cl (centres undefined) | 109 to 110 °C |
| Nc1nccc(OCC(F)(F)F)c1N | 126 to 128 °C |
| O=C(N1CCNc2ccccc2C1)n1ccnc1 | 98 to 101 °C |
| CN1CCN(CCCN2c3ccc(F)cc3Sc3ccc(S(=O)(=O)N(C)C)cc32)CC1 | 166 to 169 °C |
| COc1ccc(OC)c2c(Nc3cccc(Br)c3)c(C#N)cnc12 | 72 to 74 °C |
| O=C(O)c1ccc(-n2c(-c3ccccc3)cc3c2CCCC3)cc1 | 244 to 246 °C |
| Cc1ccc(-c2c(NS(=O)(=O)c3ccc(C(C)(C)C)cc3)ncnc2OCCOc2ccc(-c3nnn[nH]3)cc2)cc1 | 165 to 166 °C |
| Cc1c(Cl)c(OCC(=O)O)c(Cc2ccc3c(Cl)cccc3c2)c(O)c1C=O | 194 to 196 °C |
| CCC1Cc2cc(OCC(=O)O)cc(Br)c2C1=O (centres undefined) | 146 to 148 °C |
| C/C=C/C(=O)N1C(=O)OC(C)(C)[C@H]1c1ccccc1 | 104 °C |
| COc1ccc(-c2nc(-c3ccc(Cl)c(Cl)c3)ncc2C(=O)N2CCOCC2)cc1OC | 181 °C |
| CCOc1cc(OCc2ccc(CN(C)C)o2)cc2c1C(=O)N(COC(=O)c1c(Cl)cccc1Cl)S2(=O)=O | 157 to 158 °C |

| Structure (SMILES) | melting point |
| --- | --- |
| COc1cc(N(Cc2cccc(SC(F)(F)F)c2)C[C@@H](O)C(F)(F)F)cc(OC)c1OC | 88.9 to 89.1 °C |
| CS(=O)(=O)c1ccc(NCCc2[nH]c3c(cnc4cc(Cl)ccc43)c2C=NNc2ccccc2)cc1 | 185 to 186 °C |
| CC(=O)OC1CCC2(COS(=O)(=O)c3ccc(C)cc3)C(=CCC3C2CCC2(C)C(OC(C)=O)CCC32)C1 (centres undefined) | 135 to 137 °C |
| CC(C)(C)OC(=O)n1cccc1-c1ccc2c(c1)C1(CCCCC1)C(=O)N2 | 177 °C |
| Cc1ccccc1N1CCc2c(N)nc3c(C)cccc3c21 | 173 to 174 °C |
| COc1cc(CCCN2CCc3cc(OC)c(OC)cc3C2)ccc1NC(=O)c1cccc2c(=O)c3cccc(C)c3[nH]c12 | 174 °C |
| COC(=O)Cc1ccc(OCCNC(=O)C2Cc3ccccc3N2S(=O)(=O)c2ccc(-c3ccc(F)cc3OC)cc2)cc1 (centres undefined) | 70 to 75 °C |
| O=C(Oc1ccc(Oc2ccccc2)cc1)N1CCC(O)CC1 | 130 to 133 °C |
| CC(=O)O[C@H]1[C@H](NC(=N)Nc2ccccc2)c2cc(C#N)ccc2OC1(C)C (relative stereo) | 239 to 240 °C |
| CC(O)=C(C#N)C(=O)Nc1ccc(Cl)cc1 | 209 to 211 °C |
| CC(=O)NC(=Cc1cccs1)C1=NC(=Cc2ccc([N+](=O)[O-])cc2)C(=O)O1 | 196 to 197 °C |
| CC1Cc2c(N3CCN(CC(F)(F)F)CC3)c(F)cc3c(=O)c(C(=O)O)cn1c23 (centres undefined) | 287 to 289 °C |
| COc1cc(Nc2c(C#N)cnc3cc(-c4ccc(CN5CCOCC5)cn4)ccc23)c(Cl)cc1Cl | 220 to 222 °C |
| COCCOC(=O)CC[C@@H](NC(=O)[C@@H](NC(=O)OC(C)(C)C)C(C)C)C(N)=O | 107 to 108 °C |
| Cc1cccc(-c2c[nH]nc2-c2ccnc(-c3ccc(OCC(=O)N4CCOCC4)cc3)c2)n1 | 170 °C |
| Nc1nc(N)nc(-c2ccc(NS(=O)(=O)c3cccc4ccccc34)cc2)n1 | > 250 °C |
| CN(C)CCc1[nH]c2ccccc2c1CSc1ccc(Cl)cc1 | 115 to 117 °C |
| O=C(c1ccc(Cl)cc1Cl)C1(c2cccnc2)CC1 | 83 °C |
| CCOC(=O)c1sc(SC)c2c1CCC(NC(C)=O)C2=O (centres undefined) | 215 to 216 °C |
| CN(Cc1ccc(NC(=O)C2=Cc3cc(-c4ccc(OC5CCOCC5)cc4)ccc3S(=O)(=O)CC2)cc1)C1CCOCC1 | 227 to 229 °C |
| CC(C)(C)NC(=O)[C@@H]1C[C@H](Cl)CN1C(=O)[C@@H](O)[C@H](Cc1ccccc1)N(Cc1ccccc1)Cc1ccccc1 | 64 to 67 °C |
| COc1nc2ncnn2c(N2CCC(C)CC2)c1-c1ccc(C)cc1F | 201 °C |
| CCN(c1ccccc1C)S(=O)(=O)c1cc([N+](=O)[O-])ccc1C | 78 to 80 °C |
| COC(=O)c1cccc2nc(OC)n(Cc3ccc(-c4ccccc4-c4nnn[nH]4)cc3)c12 | 165 to 166 °C |

| Structure (SMILES) | melting point |
| --- | --- |
| CC(C)(C)CC(C)(C)c1cc(-n2nc3ccc(Cl)cc3n2)c(O)c(C(C)(C)c2ccccc2)c1 | 104 to 105 °C |
| CCOC(=O)c1sc(N)nc1-c1cccc(C)c1 | 183 to 184 °C |
| Fc1ccc(COc2ncc(F)c(NCOCc3ccccc3)n2)cc1 | 64 to 66 °C |
| CCC(n1cncn1)C(O)(Cn1cncn1)c1ccc(Cl)cc1 (centres undefined) | 168 to 169 °C |
| CN(C)C=C1CCN(C(=O)c2ccc([N+](=O)[O-])cc2)c2ccccc2C1=O | 180 to 183 °C |
| O=C(Nc1ccc(Oc2ccnc(N3CCC(F)(F)CC3)n2)c2ccccc12)c1cc(F)cc(N2CCCCC2)c1 | 172 to 174 °C |
| CC(=O)Nc1nc2c(s1)-c1nc(-c3ccccc3Cl)ncc1C2 | 257 °C |
| CN(Cc1cccs1)C(=O)C12CC3CC(CC(O)(C3)C1)C2 | 88 to 91 °C |
| Cc1cc(C(C)(C)C)c(O)c(S(=O)(=O)Nc2ccc(C#N)cc2Cl)c1 | 101 to 105 °C |
| O=C(O)C1=Cc2cc(C(=O)c3ccc(Cl)cc3)ccc2OC1C(F)(F)F (centres undefined) | 268 to 269 °C |
| O=c1ccn(-c2cccc(C(F)(F)F)c2)nc1-c1ccoc1-c1ccccc1 | 159 to 163 °C |
| c1ccc2c(c1)CC[C@H]1O[C@@H]21 | 47 to 48 °C |
| N#CCCNC(=O)c1cccc(-c2cccn3c(=O)n(Cc4cccc(C(F)(F)F)c4)nc23)c1 | 217 to 219 °C |
| CCc1ccc2c(c1)CC(NC(=O)C(F)(F)F)C2 (centres undefined) | 112 to 114 °C |
| CN(Cc1ccc(C(=O)Cn2cnc3cc(-c4ccc(Cl)cc4)sc3c2=O)cc1)C(=O)C(F)(F)F | 235 to 238 °C |
| O=C1c2ccccc2C(=O)N1OCc1ccc(F)c(Oc2ccccc2)c1 | 88.2 °C |
| CCOc1cc2ncc(C#N)c(NCc3ccc(F)c(F)c3)c2cc1OCC | 167 to 169 °C |
| Fc1ccc(CC(=S)N2CCCCC2)cc1 | 65.5 to 67.5 °C |
| CCOC(=O)CC(=O)Nc1ccc(F)cc1F | 66 to 68 °C |
| CCN1C(=O)CCCc2cc(Nc3ncc(Cl)c(Nc4ccccc4-n4cccn4)n3)c(OC)cc21 | 82 to 85 °C |
| CCCCCc1ncc(C(=O)OCC)c(O)n1 | 127 to 129 °C |
| COCCNC(=O)Cc1ccc2ccn(C3CCN(CCc4ccc(F)cc4)CC3)c2c1 | 113 to 114 °C |
